Read-outs that look alike come from different tables or passages of the source. Starred links: 1 amine or outer side, 2 acyl side, 3 side chain; linkers in the order of their positions; H or OH if unused. Positions of bridges follow the written chain, without caps; N, C: chain ends. Non-standard residues stand in square brackets, D forms with d. Residues, ends and D or L forms follow the SMILES beside them. *: point of attachment. NMePhe(3-Cl) = CN[C@@H](Cc1cccc(Cl)c1)C(=O)O; NEtPhe = CCN[C@@H](Cc1ccccc1)C(=O)O; hhPhe = N[C@@H](CCCc1ccccc1)C(=O)O; NMeF = CN[C@@H](Cc1ccccc1)C(=O)O; NMeI = CC[C@H](C)[C@H](NC)C(=O)O; NMeβAla = CN(CCC(=O)[*:2])[*:1]; NMeL = CN[C@@H](CC(C)C)C(=O)O; Phg = N[C@H](C(=O)O)c1ccccc1; NMeV = CN[C@H](C(=O)O)C(C)C; NMeA = CN[C@@H](C)C(=O)O; Piperidide = C1CCN(*)CC1; dNMeA = CN[C@H](C)C(=O)O; β3hA = C[C@H](N)CC(=O)O; Sar = CNCC(=O)O; tBu = CC(C)(C)*
Key:
[1] = PAMPA (parallel artificial membrane permeability assay); format: in vitro ADME; settings: for Papp at 18 hours, 50 µM: PAMPA
How it was run: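 Artificial membrane was 10% (w/v) egg lecithin plus 0.5% (w/v) cholesterol in dodecane on a PVDF filter. A 10 mM DMSO stock was added at 0.5% (v/v) to donor buffer (50 mM MOPSO, pH 6.5, 5.0% glycocholic acid). After 18 h at 37 °C, LC/MS or LC/UV gave donor and acceptor levels for Pe.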

[2] = Metabolic stability in human hepatic microsome; format: in vitro ADME; settings: microsomes
[3] = membrane permeation rate (Pe), 50 mM MOPSO buffer pH 6.5 with 5.0% glycocholic acid, 37° C., 18 hours, read-out: iPAMPA Pe
[4] = pH 7.4, human hepatic microsome, NADPH(+), read-out: CL NADPH(+)

SMILES	Papp at 18 hours, 50 µM [1, 3] [×10⁻⁶ cm/s]	microsomal CLint at 1 uM [2, 4] [µL/min/mg]	Papp at 18 hours, 50 µM ([1]; pH 6.5) [×10⁻⁶ cm/s]	microsomal CLint at 1 uM ([2]; human, pH 7.4, CL NADPH(+)) [µL/min/mg]	iPAMPA Pe ([1]; membrane permeation rate (Pe), 50 mM MOPSO buffer pH 6.5 with 5.0% glycocholic acid, 37° C., 18 hours)
CC(C)C[C@@H]1NC(=O)[C@H](CC(C)C)NC(=O)[C@H](C)N(C)C(=O)C[C@@H](C(=O)N2CCCCC2)NC(=O)[C@H](C(C)C)N(C)C(=O)[C@H](CC(C)C)NC(=O)[C@H](Cc2ccccc2)NC(=O)[C@H]([C@@H](C)O)NC(=O)CN(C)C(=O)[C@H](CC(C)C)NC(=O)[C@H](c2ccccc2)NC1=O [DP-561] ([NMeA]LL[Phg]L[Sar]TFL[NMeV]D-Piperidide; lactam N-11)	24	48			
CC(C)C[C@@H]1NC(=O)[C@H]([C@@H](C)O)NC(=O)[C@@H]2CCCN2C(=O)[C@H](Cc2ccccc2)NC(=O)[C@H](COC(C)(C)C)NC(=O)[C@H](CC(C)C)N(C)C(=O)[C@H](Cc2ccccc2)NC(=O)[C@@H](C)N(C)C(=O)C[C@H](C)NC(=O)CNC(=O)[C@H](C)N(C)C(=O)[C@H](C)N(C)C1=O [DP-752] (cyclo(F[NMeL]S(tBu)FPTL[NMeA][NMeA]G[β3hA][dNMeA]))			6.2	33	
CC[C@H](C)[C@H](NC(=O)[C@H](Cc1ccccc1)N(C)C(=O)[C@@H]1CC(=O)N[C@@H](C)C(=O)N(C)[C@@H](CC(C)C)C(=O)N[C@@H]([C@@H](C)O)C(=O)N(C)CC(=O)N(C)[C@@H](Cc2ccccc2)C(=O)N[C@@H](CC(C)C)C(=O)N1)C(=O)N1CCCCC1 [DP-567] (A[NMeL]T[Sar][NMeF]LD[NMeF]I-Piperidide; lactam N-7)	30	224			
CC(C)C[C@H]1C(=O)N[C@H](C(=O)N2CCCCC2)CC(=O)N(C)CCC(=O)N[C@@H]([C@@H](C)O)C(=O)N(C)[C@@H](C)C(=O)N[C@@H](COC(C)(C)C)C(=O)N(C)[C@@H](Cc2ccccc2)C(=O)N1C [DP-532] ([NMeβAla]T[NMeA]S(tBu)[NMeF][NMeL]D-Piperidide; lactam N-7)	20	105			
CC(C)C[C@H]1C(=O)N[C@@H](C)C(=O)N(C)[C@@H](Cc2ccccc2)C(=O)N(C)[C@@H](C(C)C)C(=O)N[C@@H](C)C(=O)N(C)[C@@H](C)C(=O)N[C@H](C(=O)N(C)[C@@H](Cc2ccccc2)C(=O)N[C@@H](C)C(=O)N2CCCCC2)CC(=O)N(C)[C@@H](C)C(=O)N(C)[C@@H](Cc2ccccc2)C(=O)N[C@@H]([C@@H](C)O)C(=O)N(C)[C@@H](C)C(=O)N1C [DP-367] ([NMeA][NMeF]T[NMeA][NMeL]A[NMeF][NMeV]A[NMeA]D[NMeF]A-Piperidide; lactam N-11)	12	17			
CCN1C(=O)CN(C)C(=O)[C@H]([C@@H](C)O)NC(=O)[C@H](C)N(C)C(=O)C[C@@H](C(=O)N2CCCCC2)NC(=O)[C@H](C(C)C)N(C)C(=O)[C@H](C)NC(=O)[C@H](CC(C)C)N(C)C(=O)[C@@H]2CCCN2C(=O)[C@H](CC(C)C)N(C)C(=O)[C@H](Cc2ccccc2)N(C)C(=O)[C@@H]1Cc1ccccc1 [DP-542] ([NMeA]T[Sar][NEtPhe][NMeF][NMeL]P[NMeL]A[NMeV]D-Piperidide; lactam N-11)			22	21	
CC(C)C[C@@H]1NC(=O)[C@@H]2CCCN2C(=O)[C@H](Cc2ccccc2)N(C)C(=O)[C@H](C)N(C)C(=O)[C@H]([C@@H](C)O)NC(=O)[C@@H](C(C)C)NC(=O)C[C@@H](C(=O)N2CCCCC2)NC(=O)[C@H](CC(C)C)N(C)C(=O)[C@H](C)N(C)C(=O)[C@H](CCCc2ccccc2)NC(=O)[C@H](C(C)C)N(C)C1=O [DP-733] ([dV]T[NMeA][NMeF]PL[NMeV][hhPhe][NMeA][NMeL]D-Piperidide; lactam N-11)	26	97			
CC[C@H](C)[C@@H]1NC(=O)[C@H](Cc2ccccc2)NC(=O)[C@@H](C)N(C)C(=O)C[C@@H](C(=O)N2CCCCC2)NC(=O)[C@H](CC(C)C)NC(=O)[C@H](Cc2ccccc2)N(C)C(=O)[C@H](Cc2ccccc2)NC(=O)[C@H](CC(C)C)NC(=O)[C@H]([C@@H](C)O)NC(=O)[C@H](CC(C)C)NC1=O [DP-119] ([dNMeA]FILTLF[NMeF]LD-Piperidide; lactam N-10)	16	67			
CC[C@H](C)[C@H]1C(=O)N[C@H](C(=O)N2CCCCC2)CC(=O)N(C)[C@H](C)C(=O)N(C)[C@@H](C)C(=O)N(C)CC(=O)N(C)[C@@H](CC(C)C)C(=O)N[C@@H]([C@@H](C)O)C(=O)N(C)[C@@H](Cc2ccccc2)C(=O)N(C)[C@@H](CC(C)C)C(=O)N[C@@H](COC(C)(C)C)C(=O)N1C [DP-144] ([dNMeA][NMeA][Sar][NMeL]T[NMeF][NMeL]S(tBu)[NMeI]D-Piperidide; lactam N-10)			65	125	
CC[C@H](C)[C@@H]1NC(=O)[C@H](C)N(C)C(=O)[C@@H](C)N(C)C(=O)C[C@H](C)NC(=O)[C@H](CC(C)C)N(C)C(=O)[C@H](C)N(C)C(=O)[C@H](Cc2cccc(Cl)c2)N(C)C(=O)[C@H]([C@@H](C)O)NC(=O)[C@H](Cc2cccc(Cl)c2)N(C)C(=O)[C@H](CC(C)C)N(C)C1=O [DP-811] (cyclo(I[NMeL][NMePhe(3-Cl)]T[NMePhe(3-Cl)][NMeA][NMeL][β3hA][dNMeA][NMeA]))		241			7.0E−05
CC[C@H](C)[C@H]1C(=O)N[C@H](C(=O)N2CCCCC2)CC(=O)N(C)[C@H](C)C(=O)N[C@@H](CC(C)C)C(=O)N(C)[C@@H](Cc2ccccc2)C(=O)N(C)[C@@H](CC(C)C)C(=O)NCC(=O)N(C)[C@@H](C(C)C)C(=O)N(C)[C@@H](Cc2ccccc2)C(=O)N(C)[C@@H](C)C(=O)N[C@@H]([C@@H](C)O)C(=O)N(C)[C@@H](C)C(=O)N1C [DP-94] ([dNMeA]L[NMeF][NMeL]G[NMeV][NMeF][NMeA]T[NMeA][NMeI]D-Piperidide; lactam N-12)			28	17	
CC[C@H](C)[C@H]1C(=O)N[C@@H](C)C(=O)N[C@H](C(=O)N2CCCCC2)CC(=O)N[C@H](C(C)C)C(=O)N[C@@H](Cc2ccccc2)C(=O)N(C)[C@@H](C(C)C)C(=O)N(C)[C@@H](C)C(=O)N[C@@H]([C@@H](C)O)C(=O)N(C)CC(=O)N(C)[C@@H](CC(C)C)C(=O)N1C [DP-254] ([dV]F[NMeV][NMeA]T[Sar][NMeL][NMeI]AD-Piperidide; lactam N-10)	3.5	13			
CC(C)C[C@H]1C(=O)N[C@H](C(=O)N2CCCCC2)CC(=O)N[C@H](C)C(=O)N(C)[C@@H](C)C(=O)N(C)[C@@H](Cc2ccccc2)C(=O)N(C)[C@@H](CC(C)C)C(=O)N[C@@H]([C@@H](C)O)C(=O)N1C [DP-739] ([dA][NMeA][NMeF][NMeL]T[NMeL]D-Piperidide; lactam N-7)	18	164			
CC(C)C[C@H]1C(=O)N[C@@H](C)C(=O)N(C)[C@@H](C)C(=O)N[C@H](C(=O)N(C)[C@@H](Cc2ccccc2)C(=O)N[C@@H](C)C(=O)N2CCCCC2)CC(=O)N(C)[C@H](C)C(=O)N(C)[C@@H](C(C)C)C(=O)N(C)[C@@H](C)C(=O)N[C@@H](Cc2ccccc2)C(=O)N[C@@H]([C@@H](C)O)C(=O)N(C)[C@@H](C)C(=O)N1C [DP-354] ([dNMeA][NMeV][NMeA]FT[NMeA][NMeL]A[NMeA]D[NMeF]A-Piperidide; lactam N-10)	3.3	8			
